In US6239182A, “Method for preventing sexually transmitted diseases” (priority 1999, dated 2001):

Experiments:
MT2 cells = assay: cytotoxicity towards host cells in the viral-binding inhibition assay; assay type: cell-based; conditions: at the concentration ranges used in the viral-binding inhibition assay
Procedure: Serial dilutions of the test compounds (ranging from 0.1 μg/ml to 1.0 mg/ml) were added to HIV-1 virus such that 50 μl inoculum produced between 70 to 100 syncytia per well in untreated wells containing MT2 cells. The HIV-1 used was strain IIIs propagated in, and harvested from, a T4-lymphobastoid cell line. Each serial dilution of the test compound with virus was placed in each of three wells containing MT2 cells. The test compound alone was added to a fourth well containing MT2 cells to test for possible cytotoxicity. Triplicate virus control samples (no added test compounds but containing the equivalent amounts of the RPMI medium) were also included.

HIV-1 = conditions: comparison statement, no data given; cited from earlier work
[1] = test system: sheep testicular hyaluronidase; assay: hyaluronidase inhibition (hyaluronic acid hydrolysis); assay type: biochemical; conditions: pH 5.5, 10 minutes preincubation; inactive = no inhibition at 1 mg/ml
Procedure: Hyaluronidase activity was quantitatively determined by measuring the extent of hyaluronic acid hydrolysis (i.e., the concentration of N-acetylglucosamine-reactive material formed from enzyme activity). Reaction mixtures (0.25 ml) containing the following were prepared: test compound (variable concentration); 0.1 M sodium acetate; 0.15 M sodium chloride; pH adjusted to 5.5; 7.2 units sheep testicular hyaluronidase (Sigma, Type III; H-2251) contained in an acetate buffer; 0.3 mg/ml hyaluronic acid (Sigma, from bovine vitreous humor; H-7630). The enzyme was preincubated with the test agent (1 mg/ml for screening purposes) for 10 minutes before starting the reaction by the addition of hyaluronic acid. The enzyme reaction was determined using the method of Aronson and Davidson (J. Biol. Chem. 241 437-440 (1967)). The reaction mixture was incubated for 30 minutes at room temperature.
The reversibility of the hyaluronidase was determined by evaluating enzyme activity at different levels of enzyme (Ackermann and Potter, Proc. Soc. Exp. Biol. Med. 72 1-9 (1949)).

[2] = test system: vaginal/cervical epithelial and other cells; conditions: background statement; cited from earlier work
Lactobacillus gasseri = assay: effect on normal vaginal flora (Lactobacillus growth in culture); assay type: cell-based; conditions: at 0.5 mg/ml
Procedure: This example illustrates the effect of the inhibitory agents of this invention on the normal vaginal flora. Lactobacillus gasseri, which is found in normal vaginal flora, was obtained from the American Type Culture Collection (Rockville, Md.) and cultured under anaerobic conditions at 37° C. in the presence of the desired test agents. Control samples without added test agents were also run. Samples were collected at twenty minute intervals starting at 120 minutes after the start of incubation through 240 minutes. The absorbance at 550 nm was used to estimate the cell density and inhibitory effects. Nonoxynol-9 was also evaluated for comparison purposes.

Nonoxynol-9
toxicity towards the host cells (MT2) (MT2 cells): did show cytotoxic effects
inhibition of the enveloped virus HIV (in words) (HIV-1): inhibits
IC50 (hyaluronidase) [1]: inactive
lowest concentration that can injure vaginal/cervical epithelial and other cells [2]: about 0.0005%
inhibition of Lactobacillus gasseri growth (Lactobacillus gasseri): about 60%
